# Results from paper PMC11775380, “Discovery of Novel Nav1.7-Selective Inhibitors with the 1H-Indole-3-Propionamide Scaffold for Effective Pain Relief” (Research, 2025).
# Tests used:
# [1] = target: T1, Nav1.7 R1613A (Homo sapiens, UniProt Q15858, R1613A); assay: Single site-directed mutagenesis, inhibition by patch clamp; assay type: cell-based; conditions: 1 μM
# T1 construct: expressed in transfected cells; host or cells: HEK293T
# Method: (§1) The amino acids depicted in Fig. 4C were individually mutated to alanine or glycine to perform single site-directed mutagenesis. Subsequently, the inhibition rates of these mutations against WN2-R were measured at a concentration of 1 μM (Fig. 4D). […] While single site-directed mutagenesis did affect the antagonistic activity of WN2-R, it did so to a limited extent, as the presumed induced-fit effect typically arises from the concerted movement of multiple residues.
# (§2) Whole-cell patch-clamp recordings were conducted at 25 ± 2 °C, utilizing an EPC 10USB patch-clamp amplifier (HEKA Elektronik, Lambrecht, Germany). Pipettes, with access resistance between 2.0 and 3.0 MΩ, were pulled from borosilicate glass capillary tubes using a 2-step vertical microelectrode puller (PC-10, Narishige Group, Tokyo, Japan). Voltage-clamp recordings were obtained with PatchMaster software v2 × 73 (HEKA Elektronik) 5 min after establishing whole-cell configuration, sampled at 20 kHz, and filtered at 5 kHz. To minimize voltage errors, 80% series resistance compensation was applied. Pipettes were filled with 140 mM CsF, 10 mM NaCl, 1 mM EGTA, and 10 mM HEPES (pH=7.4, adjusted with CsOH). The external solution contained 140 mM NaCl, 2 mM CaCl2, 1 mM MgCl2, 5 mM KCl, 10 mM HEPES, and 10 mM glucose (pH=7.4, adjusted with NaOH). IC50 values were determined in HEK293T or ND7/23 cell lines by voltage clamping at −80 mV, followed by stepping to the V1/2 of inactivation for 8 s to facilitate compound binding.
# [2] = target: T2, Nav1.7 F1609A (Homo sapiens, UniProt Q15858, F1609A); assay: as above; assay type: cell-based; conditions: 1 μM
# T2 construct: expressed in transfected cells; host or cells: HEK293T
# T2 sequence (Q15858 whole entry F1609A): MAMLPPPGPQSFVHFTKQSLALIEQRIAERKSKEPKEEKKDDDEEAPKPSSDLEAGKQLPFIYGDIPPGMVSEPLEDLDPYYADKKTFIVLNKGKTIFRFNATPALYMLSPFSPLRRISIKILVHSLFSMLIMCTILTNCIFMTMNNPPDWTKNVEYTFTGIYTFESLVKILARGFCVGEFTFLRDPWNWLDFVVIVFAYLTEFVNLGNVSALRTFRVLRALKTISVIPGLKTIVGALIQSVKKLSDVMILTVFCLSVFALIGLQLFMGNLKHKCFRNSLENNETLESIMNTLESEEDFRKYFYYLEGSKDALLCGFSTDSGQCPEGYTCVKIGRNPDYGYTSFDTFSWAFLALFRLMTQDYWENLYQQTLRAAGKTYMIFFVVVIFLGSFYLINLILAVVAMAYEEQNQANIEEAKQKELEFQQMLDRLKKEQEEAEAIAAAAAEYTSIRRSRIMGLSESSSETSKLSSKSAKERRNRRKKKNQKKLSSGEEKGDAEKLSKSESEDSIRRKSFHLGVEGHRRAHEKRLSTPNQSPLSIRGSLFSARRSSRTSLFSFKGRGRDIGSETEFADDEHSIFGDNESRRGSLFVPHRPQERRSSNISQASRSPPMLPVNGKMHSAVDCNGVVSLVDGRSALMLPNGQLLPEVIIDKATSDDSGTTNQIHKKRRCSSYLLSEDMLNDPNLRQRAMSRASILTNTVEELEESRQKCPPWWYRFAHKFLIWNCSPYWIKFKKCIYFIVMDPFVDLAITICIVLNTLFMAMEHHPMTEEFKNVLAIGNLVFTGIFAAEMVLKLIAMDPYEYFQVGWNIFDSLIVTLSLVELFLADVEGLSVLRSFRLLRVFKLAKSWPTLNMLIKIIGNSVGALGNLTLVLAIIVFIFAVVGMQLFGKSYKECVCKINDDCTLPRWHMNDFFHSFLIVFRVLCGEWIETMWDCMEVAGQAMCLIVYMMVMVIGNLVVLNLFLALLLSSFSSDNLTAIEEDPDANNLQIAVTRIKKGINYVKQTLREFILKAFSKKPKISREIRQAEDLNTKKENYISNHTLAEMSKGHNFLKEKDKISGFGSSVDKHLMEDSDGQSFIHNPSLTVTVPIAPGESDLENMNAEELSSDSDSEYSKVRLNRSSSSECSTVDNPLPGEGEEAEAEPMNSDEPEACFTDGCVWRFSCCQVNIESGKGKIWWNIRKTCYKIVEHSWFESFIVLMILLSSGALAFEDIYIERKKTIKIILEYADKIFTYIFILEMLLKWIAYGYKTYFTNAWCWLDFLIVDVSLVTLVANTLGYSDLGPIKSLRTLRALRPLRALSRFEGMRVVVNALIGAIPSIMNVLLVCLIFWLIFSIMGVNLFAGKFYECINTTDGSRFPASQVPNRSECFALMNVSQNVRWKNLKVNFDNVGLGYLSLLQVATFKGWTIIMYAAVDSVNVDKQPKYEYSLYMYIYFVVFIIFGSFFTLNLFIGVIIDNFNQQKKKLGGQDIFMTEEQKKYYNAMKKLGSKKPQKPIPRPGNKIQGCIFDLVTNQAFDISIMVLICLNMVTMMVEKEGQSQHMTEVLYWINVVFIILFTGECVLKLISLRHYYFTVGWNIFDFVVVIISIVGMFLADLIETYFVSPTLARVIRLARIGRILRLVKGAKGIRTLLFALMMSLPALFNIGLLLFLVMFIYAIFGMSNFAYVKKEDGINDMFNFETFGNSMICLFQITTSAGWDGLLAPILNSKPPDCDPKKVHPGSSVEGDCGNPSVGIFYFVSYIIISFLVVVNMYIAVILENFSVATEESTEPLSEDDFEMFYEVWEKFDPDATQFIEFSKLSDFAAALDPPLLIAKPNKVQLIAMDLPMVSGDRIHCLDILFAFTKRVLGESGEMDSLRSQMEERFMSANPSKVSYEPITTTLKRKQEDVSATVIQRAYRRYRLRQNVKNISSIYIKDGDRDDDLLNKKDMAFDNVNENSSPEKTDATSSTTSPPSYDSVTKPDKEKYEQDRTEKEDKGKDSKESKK
# T2 sequence (Q07699 19-218 partner): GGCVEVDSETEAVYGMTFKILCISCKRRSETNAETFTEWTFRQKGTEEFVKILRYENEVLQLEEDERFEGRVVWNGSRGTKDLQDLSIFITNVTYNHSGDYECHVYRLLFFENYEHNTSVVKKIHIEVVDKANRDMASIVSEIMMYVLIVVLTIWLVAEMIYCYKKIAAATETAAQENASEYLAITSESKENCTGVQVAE
# T2 sequence (O60939 30-215 partner): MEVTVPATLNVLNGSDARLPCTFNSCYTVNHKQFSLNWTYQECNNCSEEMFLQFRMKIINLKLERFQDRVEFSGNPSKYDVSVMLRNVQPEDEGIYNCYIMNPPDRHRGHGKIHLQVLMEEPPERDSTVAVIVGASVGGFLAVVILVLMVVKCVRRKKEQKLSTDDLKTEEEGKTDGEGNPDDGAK
# Method: as §1, §2
# [3] = target: T3, Nav1.7 M1593A (Homo sapiens, UniProt Q15858, M1593A); assay: as above; assay type: cell-based; conditions: 1 μM
# T3 construct: expressed in transfected cells; host or cells: HEK293T
# T3 sequence (Q15858 whole entry M1593A): as the sequence (Q15858 whole entry F1609A) above, with M1593A, A1609F counted along it
# T3 sequence (Q07699 19-218 partner): as the sequence (Q07699 19-218 partner) above
# T3 sequence (O60939 30-215 partner): as the sequence (O60939 30-215 partner) above
# Method: as §1, §2
# [4] = target: T4, Nav1.7 I1612A (Homo sapiens, UniProt Q15858, I1612A); assay: as above; assay type: cell-based; conditions: 1 μM
# T4 construct: expressed in transfected cells; host or cells: HEK293T
# T4 sequence (Q15858 whole entry I1612A): as the sequence (Q15858 whole entry F1609A) above, with A1609F, I1612A counted along it
# T4 sequence (Q07699 19-218 partner): as the sequence (Q07699 19-218 partner) above
# T4 sequence (O60939 30-215 partner): as the sequence (O60939 30-215 partner) above
# Method: as §1, §2
# [5] = target: T5, Nav1.7 A1596G (Homo sapiens, UniProt Q15858, A1596G); assay: as above; assay type: cell-based; conditions: 1 μM
# T5 construct: expressed in transfected cells; host or cells: HEK293T
# T5 sequence (Q15858 whole entry A1596G): as the sequence (Q15858 whole entry F1609A) above, with A1596G, A1609F counted along it
# T5 sequence (Q07699 19-218 partner): as the sequence (Q07699 19-218 partner) above
# T5 sequence (O60939 30-215 partner): as the sequence (O60939 30-215 partner) above
# Method: as §1, §2
# [6] = target: T6, Nav1.7 N1551A (Homo sapiens, UniProt Q15858, N1551A); assay: as above; assay type: cell-based; conditions: 1 μM
# T6 construct: expressed in transfected cells; host or cells: HEK293T
# T6 sequence (Q15858 whole entry N1551A): as the sequence (Q15858 whole entry F1609A) above, with N1551A, A1609F counted along it
# T6 sequence (Q07699 19-218 partner): as the sequence (Q07699 19-218 partner) above
# T6 sequence (O60939 30-215 partner): as the sequence (O60939 30-215 partner) above
# Method: as §1, §2
# [7] = target: T7, Nav1.7 T1544A (Homo sapiens, UniProt Q15858, T1544A); assay: as above; assay type: cell-based; conditions: 1 μM
# T7 construct: expressed in transfected cells; host or cells: HEK293T
# T7 sequence (Q15858 whole entry T1544A): as the sequence (Q15858 whole entry F1609A) above, with T1544A, A1609F counted along it
# T7 sequence (Q07699 19-218 partner): as the sequence (Q07699 19-218 partner) above
# T7 sequence (O60939 30-215 partner): as the sequence (O60939 30-215 partner) above
# Method: as §1, §2
# [8] = target: T8, Nav1.7 Y1548A (Homo sapiens, UniProt Q15858, Y1548A); assay: as above; assay type: cell-based; conditions: 1 μM
# T8 construct: expressed in transfected cells; host or cells: HEK293T
# T8 sequence (Q15858 whole entry Y1548A): as the sequence (Q15858 whole entry F1609A) above, with Y1548A, A1609F counted along it
# T8 sequence (Q07699 19-218 partner): as the sequence (Q07699 19-218 partner) above
# T8 sequence (O60939 30-215 partner): as the sequence (O60939 30-215 partner) above
# Method: as §1, §2
# [9] = tested on: CFA inflammatory pain model of mice; assay: CFA-induced inflammatory (chronic) pain model; assay type: in vivo, ICR mice; conditions: for Paw withdrawal threshold (PWT) at 1.5 h: 1.5 h post drug, 24 h after CFA
# Method: The chronic pain model of mice was often used to simulate persistent pain in humans. In this model, chronic persistent pain was induced by injecting complete Freund’s adjuvant (CFA) into the right hind foot of mice. […] The chronic analgesic potential of WN2-R was evaluated using both i.g. and i.m. methods (n = 4). When administered by i.g., the PWTs of the WN2-R group and the PF-05089771 group reached their peak at 1.5 and 1 h after administration, respectively, and subsequently declined to the same level as the saline group at 2.5 h (Fig. 6D). […] When administered i.m., both the WN2-R and PF-05089771 groups reached peak PWTs at 1.5 h, and declined to the saline group level at 3 h (Fig. 6K). […] The mechanical allodynia of ICR mice (2 male and 2 female) was assessed prior to model construction using von Frey fibers according to the up–down method. Mice with paw withdraw thresholds (PWTs) remarkably deviating from the mean value were excluded from further experiments. Subsequently, 15 μl of CFA was unilaterally injected into the intraplantar surface of the right hind paw of each mice. After 24 h, the PWTs of the mice were assessed. During the i.g. administration of drugs or saline, PWTs were measured 0, 0.5, 1, 1.5, 2, and 2.5 h post drugs/saline administration. Similarly, during i.m. administration, PWTs were measured at 0, 0.5, 1, 1.5, 2, 2.5, and 3 h post drugs/saline administration.
# [10] = tested on: mice; conditions: mouse, in vivo
# Method: VGSC inhibitors required credible subtype selectivity to void side effects caused by binding to nontarget subtypes. At a concentration of 1 μM, the inhibitory rates of WN2-R on hNav1.2, hNav1.3, hNav1.4, hNav1.5, mNav1.6, and hNav1.8 were determined (n = 3 to 6, Fig. 7A). […] To further evaluate the drug safety profile, high-dose acute toxicity experiments were conducted. Mice were administered a high dose of 30 mg/kg WN2-R through i.p. administration. The rotarod test, forced-swim test, and open field test were used to explore the effect of high-dose WN2-R on the motor ability of mice (n = 4). The rotarod test evaluated the drug's effect on motor coordination, the forced-swim test examined its impact on the overall motor system, and the open field test assessed the drug's influence on the motor and nervous systems.
# T1 sequence (Q15858 whole entry R1613A): as the sequence (Q15858 whole entry F1609A) above, with A1609F, R1613A counted along it
# T1 sequence (Q07699 19-218 partner): as the sequence (Q07699 19-218 partner) above
# T1 sequence (O60939 30-215 partner): as the sequence (O60939 30-215 partner) above
smiles,measurement,setting,value
Cc1ccc(Cn2cc([C@H](CC(=O)NCCN(C)C)c3ccc(F)cc3)c3ccccc32)cc1 [WN2-R],Inhibition rate on the mutant relative to wild type,[1],57.4 % of WT
same,Effect of the mutation on antagonistic activity,[2],minimal impact
same,Inhibition rate on the mutant relative to wild type,[3],57.1 % of WT
same,Inhibition rate on the mutant relative to wild type,[4],30.6 % of WT
same,Effect of the mutation on antagonistic activity,[5],exerted an influence
same,Inhibition rate on the mutant relative to wild type,[6],58.9 % of WT
same,Inhibition rate on the mutant relative to wild type,[7],60.7 % of WT
same,Effect of the mutation on antagonistic activity,[8],minimal impact
same,Time at which PWT declined to the saline group level,[9]; i.g.,2.5 h
same,Time of peak PWT after administration,[9]; i.g.,1.5 h
same,Paw withdrawal threshold (PWT) at 1.5 h,[9]; i.g.,1.25 g
same,Time at which PWT declined to the saline group level,[9]; i.m.,3 h
same,Time of peak PWT after administration,[9]; i.m.,1.5 h
same,Paw withdrawal threshold (PWT) at 1.5 h,[9]; i.m.,1.17 g
same,Survival after high dose,[10],survived normally
